# Measured values reported in patent US7456210B2, “Benzyloxy derivatives” (Hoffmann-La Roche Inc., priority 2004, dated 2008).
# Target: T1, human MAO-B (Homo sapiens, UniProt P27338)
# T1 construct: expressed in transfected cells; host or cells: EBNA cells (transient transfection); cell membranes used
# T1 sequence (P27338 1-520): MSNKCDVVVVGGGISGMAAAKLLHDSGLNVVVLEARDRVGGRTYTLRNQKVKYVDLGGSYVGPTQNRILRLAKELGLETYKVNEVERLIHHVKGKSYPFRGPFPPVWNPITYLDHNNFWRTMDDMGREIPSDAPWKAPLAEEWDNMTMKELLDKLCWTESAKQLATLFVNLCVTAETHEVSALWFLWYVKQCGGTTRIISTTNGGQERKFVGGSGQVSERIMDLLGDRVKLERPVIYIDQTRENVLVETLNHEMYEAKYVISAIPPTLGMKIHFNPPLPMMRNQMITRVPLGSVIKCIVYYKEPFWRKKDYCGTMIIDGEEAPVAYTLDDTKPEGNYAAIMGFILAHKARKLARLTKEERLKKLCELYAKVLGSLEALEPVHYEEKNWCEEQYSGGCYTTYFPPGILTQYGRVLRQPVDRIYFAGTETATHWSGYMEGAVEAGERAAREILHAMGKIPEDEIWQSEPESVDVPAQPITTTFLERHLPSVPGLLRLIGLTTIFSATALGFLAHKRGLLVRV
# Assay: MAO-B enzymatic activity, spectrophotometric Amplex Red assay on membranes of transfected EBNA cells
# Format: biochemical
# Details: membranes of EBNA cells transfected with human MAO-B; substrate tyramine; 30 min preincubation at 37° C., pH 7.4
# Description: The cDNA's encoding human MAO-A and MAO-B were transiently transfected into EBNA cells using the procedure described by Schlaeger and Christensen [Cytotechnology 15:1-13 (1998)]. After transfection, cells were homogenised by means of a Polytron homogenizer in 20 mM Tris HCl buffer, pH 8.0, containing 0.5 mM EGTA and 0.5 mM phenylmethanesulfonyl fluoride. Cell membranes were obtained by centrifugation at 45,000×g and, after two rinsing step with 20 mM Tris HCl buffer, pH 8.0, containing 0.5 mM EGTA, membranes were eventually re-suspended in the above buffer and aliquots stored at −80° C. until use.
# MAO-A and MAO-B enzymatic activity was assayed in 96-well-plates using a spectro-photometric assay adapted from the method described by Zhou and Panchuk-Voloshina [Analytical Biochemistry 253:169-174 (1997)]. Briefly, membrane aliquots were incubated in 0.1 M potassium phosphate buffer, pH 7.4, for 30 min at 37° C. with or without various concentrations of the compounds. After this period, the enzymatic reaction was started by the addition of the MAO substrate tyramine together with 1 U/ml horse-radish peroxidase (Roche Biochemicals) and 80 μM N-acetyl-3,7,-dihydroxyphenoxazine (Amplex Red, Molecular Probes). The samples were further incubated for 30 min at 37° C. in a final volume of 200 μl and absorbance was then determined at a wavelength of 570 nm using a SpectraMax plate reader (Molecular Devices). Background (non-specific) absorbance was determined in the presence of 10 μM clorgyline for MAO-A or 10 μM L-deprenyl for MAO-B.
# IC50 values were determined from inhibition curves obtained using nine inhibitor concentrations in duplicate, by fitting data to a four parameter logistic equation using a computer program.
row,Compound,IC50 [µM]
1,"O=C1C[C@@H](c2c[nH]cn2)CN1c1ccc(OCc2cccc(F)c2)cc1 [Example 9, (R)-1-[4-(3-Fluoro-benzyloxy)-phenyl]-4-(1H-imidazol-4-yl)-pyrrolidin-2-one]",0.187
2,"Cc1nc([C@@H]2CC(=O)N(c3ccc(OCc4cccc(F)c4)cc3)C2)cs1 [Example 8, (R)-1-[4-(3-Fluoro-benzyloxy)-phenyl]-4-(2-methyl-thiazol-4-yl)-pyrrolidin-2-one]",0.387
3,"CON(C)C(=O)[C@@H]1CC(=O)N(c2ccc(OCc3cccc(F)c3)cc2)C1 [Example 10, (R)-1-[4-(3-Fluoro-benzyloxy)-phenyl]-5-oxo-pyrrolidine-3-carboxylic acid methoxy-methyl-amide]",0.392
4,"Cc1nc([C@@H]2CC(=O)N(c3ccc(OCc4cccc(F)c4)cc3)C2)no1 [Example 4, (R)-1-[4-(3-Fluoro-benzyloxy)-phenyl]-4-(5-methyl-[1,2,4]oxadiazol-3-yl)-pyrrolidin-2-one]",0.016
5,"CCOC(=O)c1nc([C@@H]2CC(=O)N(c3ccc(OCc4cccc(F)c4)cc3)C2)no1 [Example 5, 3-{(R)-1-[4-(3-Fluoro-benzyloxy)-phenyl]-5-oxo-pyrrolidin-3-yl}-[1,2,4]oxadiazole-5-carboxylic acid ethyl ester]",0.043

# Other lines, results leading:
row,IC50 [µM],Compound
1,0.011,"CC(=O)[C@@H]1CC(=O)N(c2ccc(OCc3cccc(F)c3)cc2)C1 [Example 11, (R)-4-Acetyl-1-[4-(3-fluoro-benzyloxy)-phenyl]-pyrrolidin-2-one]"
2,0.429,"NC(=O)c1nc([C@@H]2CC(=O)N(c3ccc(OCc4cccc(F)c4)cc3)C2)no1 [Example 6, 3-{(R)-1-[4-(3-Fluoro-benzyloxy)-phenyl]-5-oxo-pyrrolidin-3-yl}-[1,2,4]oxadiazole-5-carboxylic acid amide]"
3,0.018,"N=C(NO)[C@@H]1CC(=O)N(c2ccc(OCc3cccc(F)c3)cc2)C1 [Example 3, (R)-1-[4-(3-Fluoro-benzyloxy)-phenyl]-N-hydroxy-5-oxo-pyrrolidine-3-carboxamidine]"
